Source: PubChem BioAssay AID2060505 (Molecular Pharmacology Branch, DTP, NCI, 2025)

Tested on: 633275-114-R-J1-PDC complex spheroids, viability
Assay: Anticancer human tumor 633275-114-R-J1-PDC patient-derived endometrial adenocarcinoma cell line growth inhibition [GQUAD]
Conditions: for IC50: curve of first compound; for viability, T/C: stronger effect = lower value; active = viability on the fitted dose curve at most 10% of control; inactive = the rest
Summary of the method: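 Multi-cell-type spheroids of tumor cells with HUVEC and mesenchymal stem cells, treated with drug combinations. Concentrations descend in half-log steps from near clinical Cmax, or from 10 microM where Cmax is unknown; viability read-out.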

[1] = second compound 0.0316 µM, first compound 0.0316 µM
[2] = second compound 0.0316 µM, first compound 0.1 µM
[3] = second compound 0.0316 µM, first compound 0.316 µM
[4] = second compound 0.0316 µM, first compound 1 µM
[5] = second compound 0.0316 µM, first compound 3.16 µM
[6] = second compound 0.0316 µM, first compound 10 µM
[7] = second compound 0.1 µM, first compound 0.0316 µM
[8] = second compound 0.1 µM, first compound 0.1 µM
[9] = second compound 0.1 µM, first compound 0.316 µM
[10] = second compound 0.1 µM, first compound 1 µM
[11] = second compound 0.1 µM, first compound 3.16 µM
[12] = second compound 0.1 µM, first compound 10 µM
[13] = second compound 0.316 µM, first compound 0.0316 µM
[14] = second compound 0.316 µM, first compound 0.1 µM
[15] = second compound 0.316 µM, first compound 0.316 µM
[16] = second compound 0.316 µM, first compound 1 µM
[17] = second compound 0.316 µM, first compound 3.16 µM
[18] = second compound 0.316 µM, first compound 10 µM
[19] = second compound 1 µM, first compound 0.0316 µM
[20] = second compound 1 µM, first compound 0.1 µM
[21] = second compound 1 µM, first compound 0.316 µM
[22] = second compound 1 µM, first compound 1 µM
[23] = second compound 1 µM, first compound 3.16 µM
[24] = second compound 1 µM, first compound 10 µM
[25] = second compound 3.16 µM, first compound 0.0316 µM
[26] = second compound 3.16 µM, first compound 0.1 µM
[27] = second compound 3.16 µM, first compound 0.316 µM
[28] = second compound 3.16 µM, first compound 1 µM
[29] = second compound 3.16 µM, first compound 3.16 µM
[30] = second compound 3.16 µM, first compound 10 µM
[31] = second compound 10 µM, first compound 0.0316 µM
[32] = second compound 10 µM, first compound 0.1 µM
[33] = second compound 10 µM, first compound 0.316 µM
[34] = second compound 10 µM, first compound 1 µM
[35] = second compound 10 µM, first compound 3.16 µM
[36] = second compound 10 µM, first compound 10 µM
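Also: spheroids exposed to the agents for seven days.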
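For viability, T/C in this document: percent of DMSO vehicle control viability which is 100%.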

COc1cccc2c1C(=O)c1c(O)c3c(c(O)c1C2=O)CC(O)(C(=O)CO)CC3OC1CC(N)C(O)C(C)O1 (centres undefined) + Cc1cnc(CNC(=O)c2c(=O)c3ccc(N4CCCN(C)CC4)nc3n3c2sc2ccccc23)cn1
< 31.6 nM: IC50 (second compound 0.0316 µM) | IC50 (second compound 0.1 µM) | IC50 (second compound 0.316 µM) | IC50 (second compound 1 µM) | IC50 (second compound 3.16 µM) | IC50 (second compound 10 µM)
inactive: viability, T/C [1] 47.7% | viability, T/C [2] 44.6% | viability, T/C [3] 34.8% | viability, T/C [4] 19.2% | viability, T/C [7] 47.7% | viability, T/C [8] 43.1% | viability, T/C [9] 33.9% | viability, T/C [10] 19.1% | viability, T/C [13] 44.1% | viability, T/C [14] 39.7% | viability, T/C [15] 30.2% | viability, T/C [16] 14.3% | viability, T/C [19] 41.4% | viability, T/C [20] 35.2% | viability, T/C [21] 30.6% | viability, T/C [22] 16% | viability, T/C [25] 33.8% | viability, T/C [26] 32.2% | viability, T/C [27] 25.4% | viability, T/C [28] 11.2% | viability, T/C [31] 31% | viability, T/C [32] 28.8% | viability, T/C [33] 24.5%
active: viability, T/C [5] 1.21% | viability, T/C [6] 1.57% | viability, T/C [11] 0.53% | viability, T/C [12] 1.49% | viability, T/C [17] 0.1% | viability, T/C [18] 1.32% | viability, T/C [23] 0.1% | viability, T/C [24] 0.65% | viability, T/C [29] 0.14% | viability, T/C [30] 0.46% | viability, T/C [34] 4.52% | viability, T/C [35] 0.19% | viability, T/C [36] 0.43%

Cc1cccc(N(C)C(=O)C2C(O)CCN2c2nc(C)cc(C(F)(F)F)c2C#N)c1 (centres undefined) + Cc1cnc(CNC(=O)c2c(=O)c3ccc(N4CCCN(C)CC4)nc3n3c2sc2ccccc23)cn1
> 10000 nM: IC50 (second compound 0.0316 µM)
inactive: viability, T/C [1] 66.2% | viability, T/C [2] 64.1% | viability, T/C [3] 59.2% | viability, T/C [4] 65% | viability, T/C [5] 60.5% | viability, T/C [6] 67.8% | viability, T/C [7] 55.1% | viability, T/C [8] 52% | viability, T/C [9] 53.7% | viability, T/C [10] 48.3% | viability, T/C [11] 47.5% | viability, T/C [12] 46.8% | viability, T/C [13] 40% | viability, T/C [14] 41.5% | viability, T/C [15] 46% | viability, T/C [16] 50.9% | viability, T/C [17] 43.4% | viability, T/C [18] 44.5% | viability, T/C [19] 41.2% | viability, T/C [20] 42.1% | viability, T/C [21] 41.4% | viability, T/C [22] 39.9% | viability, T/C [23] 37.3% | viability, T/C [24] 37.7% | viability, T/C [25] 36.3% | viability, T/C [26] 35% | viability, T/C [27] 32.1% | viability, T/C [28] 33.5% | viability, T/C [29] 37.2% | viability, T/C [30] 35% | viability, T/C [31] 27.2% | viability, T/C [32] 33.9% | viability, T/C [33] 27.9% | viability, T/C [34] 31.4% | viability, T/C [35] 34.2% | viability, T/C [36] 24.2%
814 nM: IC50 (second compound 0.1 µM)
< 31.6 nM: IC50 (second compound 0.316 µM) | IC50 (second compound 1 µM) | IC50 (second compound 3.16 µM) | IC50 (second compound 10 µM)
